Assay results taken from ChEMBL document CHEMBL3046962, “Synthesis of new olefin chalcone derivatives as antitumor, antioxidant and antimicrobial agents” (Med Chem Res, 2012).

Experiments:
[1] = Antioxidant activity assessed as hydroxyl radical scavenging activity at 100 ug after 5 min by UV-Visible spectrophotometry; assay type: functional
[2] = Cytotoxicity against Homo sapiens (human) PN-5C-12 at 100 ug after 72 hr by MTT assay; details: in vitro
[3] = Antioxidant activity assessed as ferric reducing activity at 100 ug after 20 min by UV-Visible spectrophotometry; design: scale not given: the % may be the effect or the level left
Staphylococcus aureus [4] = test: Antimicrobial activity against Staphylococcus aureus MTCC 96 at 100 ug after 24 hr by agar disk diffusion method; assay type: functional; details: MTCC 96, 24 h, read-out: DIZ
[5] = tested on: Radical scavenging activity; test: Antioxidant activity assessed as DPPH radical scavenging activity at 100 ug after 20 min by UV-Visible spectrophotometry; assay type: functional
Proteus vulgaris [6] = test: Antimicrobial activity against Proteus vulgaris MTCC 1751 at 100 ug after 24 hr by agar disk diffusion method; assay type: functional; details: MTCC 1751, 24 h, read-out: DIZ
Escherichia coli [7] = test: Antimicrobial activity against Escherichia coli DH5[alpha] at 100 ug after 24 hr by agar disk diffusion method; assay type: functional; details: read-out: DIZ
[8] = Cytotoxicity against Homo sapiens (human) HL60-P58 at 100 ug after 72 hr by MTT assay; assay type: functional
Candida albicans [9] = test: Antimicrobial activity against Candida albicans MTCC 3017 at 100 ug after 48 hr by agar disk diffusion method; assay type: functional; details: MTCC 3017, 48 h, read-out: DIZ
[10] = Cytotoxicity against Homo sapiens (human) Hep-3BPN7 at 100 ug after 72 hr by MTT assay; assay type: functional
[11] = Cytotoxicity against Homo sapiens (human) HeLa-B75 at 100 ug after 72 hr by MTT assay; assay type: functional
Proteus vulgaris [12] = test: Antimicrobial activity against Proteus vulgaris MTCC 1751 at 20 ug after 24 hr by agar disk diffusion method; assay type: functional; details: MTCC 1751, 24 h, read-out: DIZ
Staphylococcus aureus [13] = test: Antimicrobial activity against Staphylococcus aureus MTCC 96 at 20 ug after 24 hr by agar disk diffusion method; assay type: functional; details: MTCC 96, 24 h, read-out: DIZ
Escherichia coli [14] = test: Antimicrobial activity against Escherichia coli DH5[alpha] at 20 ug after 24 hr by agar disk diffusion method; assay type: functional; details: read-out: DIZ
Candida albicans [15] = test: Antimicrobial activity against Candida albicans MTCC 3017 at 10 ug after 48 hr by agar disk diffusion method; assay type: functional; details: MTCC 3017, 48 h, read-out: DIZ
[16] = tested on: Radical scavenging activity; test: Antioxidant activity assessed as DPPH radical scavenging activity at 1 mM after 20 min by UV-Visible spectrophotometry; assay type: functional
[17] = Antioxidant activity assessed as hydroxyl radical scavenging activity at 1 mM after 5 min by UV-Visible spectrophotometry; assay type: functional
[18] = Antioxidant activity assessed as ferric reducing activity at 1 mM after 5 min by UV-Visible spectrophotometry; assay type: functional; design: scale not given: the % may be the effect or the level left

| Structure (SMILES) | Activity [1] | Activity [2] | Activity [3] | zone of inhibition at 100 µg/disc (Staphylococcus aureus [4]) | Activity [5] | zone of inhibition at 100 µg/disc (Proteus vulgaris [6]) | zone of inhibition at 100 µg/disc (Escherichia coli [7]) | Activity [8] | zone of inhibition at 100 µg/disc (Candida albicans [9]) | Activity [10] | Activity [11] | zone of inhibition at 20 µg/disc (Proteus vulgaris [12]) | zone of inhibition at 20 µg/disc (Staphylococcus aureus [13]) | zone of inhibition at 20 µg/disc (Escherichia coli [14]) | zone of inhibition at 10 µg/disc (Candida albicans [15]) | Activity [16] | Activity [17] | Activity [18] |
| --- | --- | --- | --- | --- | --- | --- | --- | --- | --- | --- | --- | --- | --- | --- | --- | --- | --- | --- |
| COc1cc(OC)c(C2=CCN(C)CC2)c(OC)c1/C=C/C(=O)c1ccc(Cl)c(Cl)c1 | 59.8% | 67.19% | 46.7% | 5 mm | 56.9% | 9.1 mm | 1.5 mm | 65.04% | 5.5 mm | 79.8% | 85.93% | – | – | – | – | – | – | – |
| CN[C@@H]1[C@H](O[C@H]2[C@H](O[C@H]3[C@H](O)[C@@H](O)[C@H](N=C(N)N)[C@@H](O)[C@@H]3N=C(N)N)O[C@@H](C)[C@]2(O)C=O)O[C@@H](CO)[C@H](O)[C@H]1O [STREPTOMYCIN] | – | – | – | – | – | – | – | – | – | – | – | 2.4 mm | 2 mm | 2.5 mm | – | – | – | – |
| OC(Cn1cncn1)(Cn1cncn1)c1ccc(F)cc1F [FLUCONAZOLE] | – | – | – | – | – | – | – | – | – | – | – | – | – | – | 6.5 mm | – | – | – |
| COc1cc(OC)c(C2=CCN(C)CC2)c(OC)c1/C=C/C(=O)c1cccs1 | 36.5% | 67.19% | 59.6% | 2.5 mm | 22.7% | 6.5 mm | 1.1 mm | 54.28% | 1.5 mm | 79.8% | 84.91% | – | – | – | – | – | – | – |
| COc1cc(OC)c(C2=CCN(C)CC2)c(OC)c1/C=C/C(=O)c1ccc(Cl)cc1Cl | 48.1% | 50.98% | 63.6% | 1.1 mm | 56.7% | 5.5 mm | 2.5 mm | 58.99% | 1.1 mm | 71.26% | 79.42% | – | – | – | – | – | – | – |
| COc1cc(OC)c(C2=CCN(C)CC2)c(OC)c1/C=C/C(=O)c1ccc(N)cc1 | 54.1% | 49.67% | 48.3% | 1.5 mm | 89.6% | 5 mm | 6.5 mm | 61.17% | 2.9 mm | 75.06% | 79.28% | – | – | – | – | – | – | – |
| O=C1O[C@H]([C@@H](O)CO)C(O)=C1O | – | – | – | – | – | – | – | – | – | – | – | – | – | – | – | 95.8% | 88.3% | 78.2% |
